In patent US12595288B2 (priority 2020, dated 2026):
Like-named read-outs stand apart in the source and are kept apart here. Bridge positions count the residues as written; N and C are the ends. Ends that are not written are not given here. Peptide text beside a SMILES is read from it.

Assays:
Elastase = Elastase (Homo sapiens, UniProt P08246); assay: biochemical
FXa = FXa (Homo sapiens, UniProt P00742); type: biochemical; settings: read-out: Compound IC50
Kallikrein 5 = Kallikrein 5 (Homo sapiens, UniProt Q9Y337); assay: biochemical
Kallikrein 7 = Kallikrein 7 (Homo sapiens, UniProt P49862); assay: biochemical
Kallikrein 12 = Kallikrein 12 (Homo sapiens, UniProt Q9UKR0); type: biochemical; settings: read-out: Compound IC50
Kallikrein 13 = Kallikrein 13 (Homo sapiens, UniProt Q9UKR3); type: biochemical; settings: read-out: Compound IC50
Kallikrein 14 = Kallikrein 14 (Homo sapiens, UniProt Q9P0G3); type: biochemical; settings: read-out: Compound IC50
Matriptase 2 = Matriptase 2 (Homo sapiens, UniProt Q8IU80); assay: biochemical
Plasma Kallikrein = Plasma Kallikrein (Homo sapiens, UniProt P03952); assay: biochemical
Plasmin = Plasmin (Homo sapiens, UniProt P00747); type: biochemical; settings: read-out: Compound IC50
Thrombin A = Thrombin A (Homo sapiens, UniProt P00734); type: biochemical; settings: read-out: Compound IC50
Trypsin = Trypsin (Bos taurus, UniProt P00760); assay: biochemical; design: species or system Bovine
Tryptase b2 = Tryptase b2 (Homo sapiens, UniProt P20231); assay: biochemical
Tryptase g1 = type: biochemical, Human; settings: read-out: Compound IC50
Urokinase = Urokinase (Homo sapiens, UniProt P00749); type: biochemical; settings: read-out: Compound IC50
Caspase 1 = Caspase 1 (Homo sapiens, UniProt P29466); assay: biochemical
Caspase 2 = Caspase 2 (Homo sapiens, UniProt P42575); assay: biochemical
Caspase 4 = Caspase 4 (Homo sapiens, UniProt P49662); type: biochemical; settings: read-out: Compound IC50
Caspase 5 = Caspase 5 (Homo sapiens, UniProt P51878); assay: biochemical
Caspase 8 = Caspase 8 (Homo sapiens, UniProt Q14790); type: biochemical; settings: read-out: Compound IC50
Caspase 9 = Caspase 9 (Homo sapiens, UniProt P55211); assay: biochemical
Caspase 10 = Caspase 10 (Homo sapiens, UniProt Q92851); assay: biochemical
Caspase 11 = Caspase 11 (Mus musculus, UniProt P70343); assay: biochemical
V2R versus V1a = settings: cited from earlier work
Caspase 6 = Caspase 6 (Homo sapiens, UniProt P55212); assay: biochemical
Caspase 7 = Caspase 7 (Homo sapiens, UniProt P55210); type: biochemical; settings: read-out: Compound IC50
[1] = molecular target: human vasopressin-2 receptor (V2R) (Homo sapiens, UniProt P30518); assay: biochemical; type: binding
Cathepsin G = Cathepsin G (Homo sapiens, UniProt P08311); assay: biochemical
Chymase = Chymase (Homo sapiens, UniProt P23946); assay: biochemical
Cathepsin B = Cathepsin B (Homo sapiens, UniProt P07858); type: biochemical; settings: read-out: Compound IC50
Cathepsin C = Cathepsin C (Homo sapiens, UniProt P53634); assay: biochemical
Cathepsin H = Cathepsin H (Homo sapiens, UniProt P09668); type: biochemical; settings: read-out: Compound IC50
Cathepsin L = Cathepsin L (Homo sapiens, UniProt P07711); type: biochemical; settings: read-out: Compound IC50
Cathepsin S = Cathepsin S (Homo sapiens, UniProt P25774); type: biochemical; settings: read-out: Compound IC50
Cathepsin V = Cathepsin V (Homo sapiens, UniProt O60911); type: biochemical; settings: read-out: Compound IC50
Papain = Papain (Carica papaya, UniProt P00784); assay: biochemical
Kallikrein 1 = Kallikrein 1 (Homo sapiens, UniProt P06870); assay: biochemical
Proteinase A = Proteinase A (Bacillus licheniformis, UniProt P00780); assay: biochemical; design: species or system Bacillus Iicheniformis
[2] = molecular target: human Arginine Vasopressin Receptor 2A (AVPR2A) (Homo sapiens, UniProt P30518); assay: cell-based
Chymotrypsin = Chymotrypsin (Bos taurus, UniProt P00766); assay: biochemical; design: species or system Bovine
[3] = tested on: 156 other GPCRs, including V1aR, V1bR and OTR; settings: cited from earlier work
[4] = tested on: DDAVP-induced hyponatremia in Sprague-Dawley rats; settings: rat, in vivo

human vasopressin-2 receptor (V2R), sequence (P30518 whole entry): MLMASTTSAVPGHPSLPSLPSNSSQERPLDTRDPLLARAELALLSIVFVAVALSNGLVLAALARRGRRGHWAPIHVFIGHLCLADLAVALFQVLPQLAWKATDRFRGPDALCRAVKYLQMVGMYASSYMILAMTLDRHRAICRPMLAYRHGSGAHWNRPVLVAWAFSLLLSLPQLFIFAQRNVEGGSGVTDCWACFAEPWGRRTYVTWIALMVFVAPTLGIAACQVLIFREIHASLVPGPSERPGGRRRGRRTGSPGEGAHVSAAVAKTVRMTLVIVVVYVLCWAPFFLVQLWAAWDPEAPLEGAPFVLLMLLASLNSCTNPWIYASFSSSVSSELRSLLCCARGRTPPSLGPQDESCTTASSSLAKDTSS
Chymase, sequence (P23946 22-247): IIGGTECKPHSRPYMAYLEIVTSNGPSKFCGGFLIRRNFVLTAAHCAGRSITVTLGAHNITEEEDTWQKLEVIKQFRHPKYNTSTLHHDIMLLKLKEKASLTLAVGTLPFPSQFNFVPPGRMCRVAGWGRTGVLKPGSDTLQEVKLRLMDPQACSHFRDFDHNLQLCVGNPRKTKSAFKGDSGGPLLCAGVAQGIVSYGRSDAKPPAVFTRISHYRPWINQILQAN
Caspase 10, sequence (Q92851-2 with tags, fused parts or gaps limits assumed): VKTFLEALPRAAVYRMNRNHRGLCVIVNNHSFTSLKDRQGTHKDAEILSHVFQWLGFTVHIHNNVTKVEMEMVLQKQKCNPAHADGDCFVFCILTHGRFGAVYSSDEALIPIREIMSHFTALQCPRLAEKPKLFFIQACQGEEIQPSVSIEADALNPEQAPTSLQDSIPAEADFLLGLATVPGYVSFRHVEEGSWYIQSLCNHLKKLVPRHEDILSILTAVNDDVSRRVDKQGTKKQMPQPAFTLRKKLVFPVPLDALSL
Papain, sequence (P00784 134-345): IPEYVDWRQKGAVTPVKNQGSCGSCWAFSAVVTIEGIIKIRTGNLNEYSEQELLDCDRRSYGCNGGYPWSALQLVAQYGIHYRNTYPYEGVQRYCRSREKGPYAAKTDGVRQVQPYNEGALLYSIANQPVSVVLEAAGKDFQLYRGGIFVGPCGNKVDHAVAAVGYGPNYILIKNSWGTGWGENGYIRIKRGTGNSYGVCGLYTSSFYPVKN
Elastase, sequence (P08246 30-247): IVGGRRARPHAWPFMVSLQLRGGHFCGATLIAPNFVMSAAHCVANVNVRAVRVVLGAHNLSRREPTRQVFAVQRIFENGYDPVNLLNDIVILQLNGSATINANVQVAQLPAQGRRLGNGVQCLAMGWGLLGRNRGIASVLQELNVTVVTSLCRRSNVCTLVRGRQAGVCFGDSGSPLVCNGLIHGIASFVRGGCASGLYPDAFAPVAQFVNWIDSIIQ
Caspase 2, sequence (P42575 167-333): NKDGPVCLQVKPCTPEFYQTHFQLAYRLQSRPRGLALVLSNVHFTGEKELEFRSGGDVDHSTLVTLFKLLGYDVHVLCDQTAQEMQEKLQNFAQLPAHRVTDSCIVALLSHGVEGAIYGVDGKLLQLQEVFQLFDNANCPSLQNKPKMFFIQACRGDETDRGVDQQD
Caspase 2, sequence (P42575 348-452): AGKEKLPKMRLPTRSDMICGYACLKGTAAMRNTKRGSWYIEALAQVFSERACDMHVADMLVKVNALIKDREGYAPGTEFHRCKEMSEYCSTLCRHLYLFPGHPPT
Cathepsin C, sequence (P53634 25-143): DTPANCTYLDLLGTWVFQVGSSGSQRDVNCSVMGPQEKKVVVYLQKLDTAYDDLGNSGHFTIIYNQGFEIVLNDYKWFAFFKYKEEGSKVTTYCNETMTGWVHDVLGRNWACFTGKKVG
Cathepsin C, sequence (P53634 231-394): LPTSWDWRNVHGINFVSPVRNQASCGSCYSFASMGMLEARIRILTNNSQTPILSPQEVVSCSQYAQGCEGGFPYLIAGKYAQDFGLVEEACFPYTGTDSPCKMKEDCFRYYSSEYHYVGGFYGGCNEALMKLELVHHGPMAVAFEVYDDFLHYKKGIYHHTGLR
Cathepsin C, sequence (P53634 395-463): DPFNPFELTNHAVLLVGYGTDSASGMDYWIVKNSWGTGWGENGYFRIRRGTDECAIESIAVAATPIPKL
Caspase 9, sequence (P55211 131-416): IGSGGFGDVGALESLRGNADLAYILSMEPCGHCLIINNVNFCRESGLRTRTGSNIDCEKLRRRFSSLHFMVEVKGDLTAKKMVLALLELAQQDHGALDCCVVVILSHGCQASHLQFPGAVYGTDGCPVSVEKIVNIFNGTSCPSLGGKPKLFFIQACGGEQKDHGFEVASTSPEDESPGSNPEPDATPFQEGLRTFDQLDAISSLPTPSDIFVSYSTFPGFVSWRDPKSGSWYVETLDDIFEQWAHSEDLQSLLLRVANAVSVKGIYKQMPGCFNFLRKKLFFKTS
Plasma Kallikrein, sequence (P03952 20-390): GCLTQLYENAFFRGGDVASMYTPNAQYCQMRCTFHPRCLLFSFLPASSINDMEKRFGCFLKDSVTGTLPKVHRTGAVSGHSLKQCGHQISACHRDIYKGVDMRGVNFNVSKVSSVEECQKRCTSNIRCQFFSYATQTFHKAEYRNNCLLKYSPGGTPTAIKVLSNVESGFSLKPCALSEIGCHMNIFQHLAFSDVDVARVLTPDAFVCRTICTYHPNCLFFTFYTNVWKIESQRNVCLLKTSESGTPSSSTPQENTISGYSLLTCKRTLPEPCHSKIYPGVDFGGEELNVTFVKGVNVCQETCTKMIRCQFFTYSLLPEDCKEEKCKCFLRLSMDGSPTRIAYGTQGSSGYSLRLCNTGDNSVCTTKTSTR
Plasma Kallikrein, sequence (P03952 391-638): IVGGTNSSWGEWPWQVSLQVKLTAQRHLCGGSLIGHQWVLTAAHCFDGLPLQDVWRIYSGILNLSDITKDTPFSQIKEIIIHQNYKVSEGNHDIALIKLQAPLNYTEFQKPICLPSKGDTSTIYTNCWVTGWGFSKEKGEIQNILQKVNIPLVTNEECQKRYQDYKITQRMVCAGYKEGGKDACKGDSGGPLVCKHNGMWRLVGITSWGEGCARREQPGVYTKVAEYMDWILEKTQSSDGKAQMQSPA
Caspase 11, sequence (P70343 102-373): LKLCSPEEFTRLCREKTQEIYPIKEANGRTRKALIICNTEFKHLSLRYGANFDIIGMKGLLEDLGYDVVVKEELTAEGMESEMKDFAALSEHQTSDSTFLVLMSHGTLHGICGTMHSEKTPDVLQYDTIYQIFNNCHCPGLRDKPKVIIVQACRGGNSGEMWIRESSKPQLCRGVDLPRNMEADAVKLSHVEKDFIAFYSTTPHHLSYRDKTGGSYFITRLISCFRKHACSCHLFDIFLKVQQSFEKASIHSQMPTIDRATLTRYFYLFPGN
Caspase 5, sequence (P51878 347-434): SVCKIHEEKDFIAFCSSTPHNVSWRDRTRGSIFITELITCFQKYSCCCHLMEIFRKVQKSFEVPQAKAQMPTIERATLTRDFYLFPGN
Caspase 5, sequence (P51878 138-327): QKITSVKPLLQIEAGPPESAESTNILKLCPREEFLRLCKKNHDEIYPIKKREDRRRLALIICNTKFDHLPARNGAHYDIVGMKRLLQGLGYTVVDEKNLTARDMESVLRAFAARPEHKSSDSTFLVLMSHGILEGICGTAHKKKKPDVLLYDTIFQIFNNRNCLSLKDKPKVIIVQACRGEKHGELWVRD
Trypsin, sequence (P00760 24-246): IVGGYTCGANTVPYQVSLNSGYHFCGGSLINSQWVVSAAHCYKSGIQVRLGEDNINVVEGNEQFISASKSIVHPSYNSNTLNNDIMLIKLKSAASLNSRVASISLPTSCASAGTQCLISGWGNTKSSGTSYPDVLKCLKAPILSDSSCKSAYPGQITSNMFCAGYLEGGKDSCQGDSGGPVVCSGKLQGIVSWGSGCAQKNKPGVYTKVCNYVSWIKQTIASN
Tryptase b2, sequence (P20231 31-275): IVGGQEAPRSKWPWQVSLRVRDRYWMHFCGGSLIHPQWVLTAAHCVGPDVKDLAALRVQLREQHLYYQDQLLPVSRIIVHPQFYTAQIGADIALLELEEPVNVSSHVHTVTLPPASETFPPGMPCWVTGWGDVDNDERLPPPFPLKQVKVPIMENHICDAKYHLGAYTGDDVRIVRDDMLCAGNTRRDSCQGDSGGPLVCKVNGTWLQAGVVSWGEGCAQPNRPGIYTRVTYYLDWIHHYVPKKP
Kallikrein 5, sequence (Q9Y337 67-293): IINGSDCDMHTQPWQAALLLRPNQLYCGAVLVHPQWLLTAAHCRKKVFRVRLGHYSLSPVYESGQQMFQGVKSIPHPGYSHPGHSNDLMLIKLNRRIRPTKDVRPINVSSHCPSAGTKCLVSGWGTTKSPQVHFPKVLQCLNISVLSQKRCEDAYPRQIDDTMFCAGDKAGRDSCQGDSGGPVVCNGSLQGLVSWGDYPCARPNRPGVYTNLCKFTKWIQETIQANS
Caspase 1, sequence (P29466 120-404): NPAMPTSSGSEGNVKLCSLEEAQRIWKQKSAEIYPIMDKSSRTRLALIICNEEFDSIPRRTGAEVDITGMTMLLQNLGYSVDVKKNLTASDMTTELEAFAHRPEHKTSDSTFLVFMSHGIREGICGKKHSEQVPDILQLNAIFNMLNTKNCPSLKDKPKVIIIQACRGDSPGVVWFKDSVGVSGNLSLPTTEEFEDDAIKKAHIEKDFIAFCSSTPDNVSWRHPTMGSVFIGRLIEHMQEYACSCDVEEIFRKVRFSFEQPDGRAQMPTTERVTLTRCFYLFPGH
Cathepsin G, sequence (P08311 21-244): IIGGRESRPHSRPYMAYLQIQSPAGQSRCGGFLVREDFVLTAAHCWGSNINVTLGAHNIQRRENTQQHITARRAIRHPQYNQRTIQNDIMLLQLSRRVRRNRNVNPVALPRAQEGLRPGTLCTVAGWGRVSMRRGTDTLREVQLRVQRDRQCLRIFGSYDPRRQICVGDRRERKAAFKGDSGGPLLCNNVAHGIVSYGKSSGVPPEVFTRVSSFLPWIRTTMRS

Compound: Gabexate mesylate [Gabexate mesylate (GM)]
- IC50 (Elastase; read-out: Compound IC50): 216 nM
- IC50 (FXa): 4470 nM
- IC50 (Kallikrein 5; read-out: Compound IC50): 697 nM
- IC50 (Kallikrein 7; read-out: Compound IC50): 46500 nM
- IC50 (Kallikrein 12): 65.4 nM
- IC50 (Kallikrein 13): 11800 nM
- IC50 (Kallikrein 14): 672 nM
- IC50 (Matriptase 2; read-out: Compound IC50): 315 nM
- IC50 (Plasma Kallikrein; read-out: Compound IC50): 30.3 nM
- IC50 (Plasmin): 344 nM
- IC50 (Thrombin A): 3160 nM
- IC50 (Trypsin; read-out: Compound IC50): 11.2 nM
- IC50 (Tryptase b2; read-out: Compound IC50): 19.8 nM
- IC50 (Tryptase g1): 10.1 nM
- IC50 (Urokinase): 614 nM

Compound: CC[C@H](C)[C@H](NC(C)=O)C(=O)N[C@@H](CCC(=O)O)C(=O)N[C@H](C(=O)N[C@H](C=O)CC(=O)O)[C@@H](C)O [IETD-CHO] (Ac-IETD-aldehyde)
- IC50 (Caspase 1; read-out: Compound IC50): 89.3 nM
- IC50 (Caspase 2; read-out: Compound IC50): 646 nM
- IC50 (Caspase 4): 2180 nM
- IC50 (Caspase 5; read-out: Compound IC50): 38.3 nM
- IC50 (Caspase 8): 2.52 nM
- IC50 (Caspase 9; read-out: Compound IC50): 51.5 nM
- IC50 (Caspase 10; read-out: Compound IC50): 28.3 nM
- IC50 (Caspase 11; read-out: Compound IC50): 934 nM

Compound: Cc1nc2c([nH]1)-c1ccccc1N(C(=O)c1ccc(NC(=O)c3ccccc3-c3ccccc3)cc1)CC2 [Conivaptan]
- V2/Vla selectivity index (V2R versus V1a): 0.15

Compound: CC(=O)N[C@@H](CC(=O)O)C(=O)N[C@@H](CCC(=O)O)C(=O)N[C@H](C(=O)N[C@H](C=O)CC(=O)O)C(C)C [DEVD-CHO]
- IC50 (Caspase 6; read-out: Compound IC50): 26.5 nM
- IC50 (Caspase 7): 5.11 nM

Compound: RPSFCNLPVKPGPCNGFFSAFYYSQKTNKCHSFTYGGCKGNANEFSTLEKCRRTCVG (disulfide 5-55, 14-38, 30-51) [R44E]
- Ki [1]: 99.3 nM

Compound: RPSFCNLPVAPGPCNGFFSAFYYSQKTNKCHSFTYGGCKGNANRFSTLEKCRRTCVG (disulfide 5-55, 14-38, 30-51) [K10A]
- Ki [1]: 9.38 nM

Compound: RPSFCNLPVKPGPCNGFFSAFYYSQKTNKCHSFTYGGCKGNANAFSTLEKCRRTCVG (disulfide 5-55, 14-38, 30-51) [R44A]
- Ki [1]: 13.3 nM

Compound: CC(C)C[C@H](NC(=O)[C@@H](NC(=O)N[C@@H](Cc1ccccc1)C(=O)O)[C@@H]1CCN=C(N)N1)C(=O)N[C@H](C=O)Cc1ccccc1 [Chymostatin]
- IC50 (Cathepsin G): 236 nM
- IC50 (Chymase): 19.9 nM

Compound: CC(C)C[C@H](NC(=O)[C@H]1O[C@@H]1C(=O)O)C(=O)NCCCCN=C(N)N [E64]
- IC50 (Cathepsin B): 5.1 nM
- IC50 (Cathepsin C; read-out: Compound IC50): 590 nM
- IC50 (Cathepsin H): 67.1 nM
- IC50 (Cathepsin L): 1.96 nM
- IC50 (Cathepsin S): 5.43 nM
- IC50 (Cathepsin V): 19.7 nM
- IC50 (Papain; read-out: Compound IC50): 0.118 nM

Compound: RPSFCNLPVEPGPCNGFFSAFYYSQKTNKCHSFTYGGCKGNANRFSTLEKCRRTCVG (disulfide 5-55, 14-38, 30-51) [K10E]
- Ki [1]: 337 nM

Compound: CC(=O)N[C@@H](CC(C)C)C(=O)N[C@@H](CC(C)C)C(=O)N[C@H](C=O)CCCNC(=N)N [Leupeptin]
- IC50 (Kallikrein 1): 296 nM
- IC50 (Proteinase A): 31500 nM

Compound: RPSFCNLPVKPGPCNGFFSAFYYSQKTNKCHSFTYGGCKGAANRFSTIEKCRRTCVG (disulfide 5-55, 14-38, 30-51) [N41A]
- Ki [1]: 8.49 nM

Compound: CCOc1ccc2c(c1)C1(CCC(OCCN3CCOCC3)CC1)C(=O)N2S(=O)(=O)c1ccc(C(=O)NC(C)(C)C)cc1OC (stereo not drawn) [Satavaptan]
- V2/Vla selectivity index (V2R versus V1a): 112

Compound: CC[C@H](C)[C@@H]1NC(=O)[C@H]([C@@H](C)O)NC(=O)[C@H](CO)NC(=O)[C@H](Cc2ccccc2)NC(=O)[C@H](CCCNC(=N)N)NC(=O)[C@H](CC(N)=O)NC(=O)[C@H](C)NC(=O)[C@H](CC(N)=O)NC(=O)CNC(=O)[C@H](CCCCN)NC(=O)[C@@H]2CSSC[C@@H]3NC(=O)[C@@H]4CCCN4C(=O)CNC(=O)[C@@H]4CCCN4C(=O)[C@H](CCCCN)NC(=O)[C@H](C(C)C)NC(=O)[C@@H]4CCCN4C(=O)[C@H](CC(C)C)NC(=O)[C@H](CC(N)=O)NC(=O)[C@@H](NC(=O)[C@H](Cc4ccccc4)NC(=O)[C@H](CO)NC(=O)[C@@H]4CCCN4C(=O)[C@@H](N)CCCNC(=N)N)CSSC[C@@H](C(=O)N[C@H](C(=O)NCC(=O)O)C(C)C)NC(=O)[C@H]([C@@H](C)O)NC(=O)[C@H](CCCNC(=N)N)NC(=O)[C@H](CCCNC(=N)N)NC(=O)[C@H](CSSC[C@H](NC(=O)[C@H](CCCCN)NC(=O)[C@H](CC(N)=O)NC(=O)[C@H]([C@@H](C)O)NC(=O)[C@H](CCCCN)NC(=O)[C@H](CCC(N)=O)NC(=O)[C@H](CO)NC(=O)[C@H](Cc4ccc(O)cc4)NC(=O)[C@H](Cc4ccc(O)cc4)NC(=O)[C@H](Cc4ccccc4)NC(=O)[C@H](C)NC(=O)[C@H](CO)NC(=O)[C@H](Cc4ccccc4)NC(=O)[C@H](Cc4ccccc4)NC(=O)CNC(=O)[C@H](CC(N)=O)NC3=O)C(=O)N[C@@H](Cc3c[nH]cn3)C(=O)N[C@@H](CO)C(=O)N[C@@H](Cc3ccccc3)C(=O)N[C@@H]([C@@H](C)O)C(=O)N[C@@H](Cc3ccc(O)cc3)C(=O)NCC(=O)NCC(=O)N2)NC(=O)[C@H](CCCCN)NC(=O)[C@H](CCC(=O)O)NC1=O [WT MQ1 peptide, mambaquaretin]
- IC50 [2]: 192 nM
- IC50 (Caspase 1): 37100 nM
- IC50 (Caspase 2): 42500 nM
- IC50 (Caspase 5): > 50000 nM
- IC50 (Caspase 6): > 50000 nM
- IC50 (Caspase 9): 8940 nM
- IC50 (Caspase 10): 9330 nM
- IC50 (Caspase 11): 14000 nM
- IC50 (Cathepsin C): 45900 nM
- IC50 (Cathepsin G): 8540 nM
- IC50 (Chymase): 18200 nM
- IC50 (Chymotrypsin): 2740 nM
- IC50 (Elastase): > 50000 nM
- IC50 (Kallikrein 5): 5770 nM
- IC50 (Kallikrein 7): 3650 nM
- IC50 (Matriptase 2): 116 nM
- IC50 (Papain): 17600 nM
- IC50 (Plasma Kallikrein): 3890 nM
- IC50 (Trypsin): 3690 nM
- IC50 (Tryptase b2): 3630 nM
- IC50 (Tryptase g1): > 50000 nM
- affinity for 156 other GPCRs [3]: no affinity at μM concentrations

Compound: Cc1ccccc1C(=O)Nc1ccc(C(=O)N2CCCC(O)c3cc(Cl)ccc32)c(C)c1 (stereo not drawn) [tolvaptan]
- plasmatic sodium concentration versus vehicle-treated group [4]: significantly different from values on the vehicle-treated group
